Test results taken from patent US9890147B2 (BAYER PHARMA AKTIENGESELLSCHAFT, priority 2012, dated 2018).
pIC50: −log10 of the molar value.

Experiments:
BRD4 (BD1) = target: T1, BRD4 (BD1) (Homo sapiens, UniProt O60885); experiment: Binding assay BRD4/acetylated peptide H4 (TR-FRET protein-protein interaction assay)
T1 construct: with relatively long constructs also being possible, preferably amino acids 44-168; made in house; host or cells: E. coli
How it was run: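 Displacement of biotin-Ac-H4 peptide from His6-tagged BRD4(BD1), final usually 10 nM, read as Eu-streptavidin to anti-His-XL665 TR-FRET (665/620 nm). Compounds tested at 11 doses up to 20 μM in duplicate, pH 7.5 HEPES, 22 °C then 4 °C incubation; IC50 by 4-parameter regression.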

MOLM-13 cells = experiment: Cell proliferation assay (alamarBlue), MOLM-13; assay type: cell-based; conditions: Homo sapiens, 96 hours incubation, inhibition of cell proliferation
How it was run: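 IC50 = concentration giving 50% growth inhibition relative to buffer-treated cells, after subtracting baseline fluorescence taken before dosing. Compound applied at 1E-5 to 1E-8 M for 96 h at 37 °C in RPMI1640 with 10% FCS; alamarBlue signal at 530/590 nm.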

| Compound | pIC50 (BRD4 (BD1)) | pIC50 (MOLM-13 cells) |
| --- | --- | --- |
| CNC(=O)N1N=C(c2ccc(-c3c(C)noc3C)cc2)c2cc(C(C)(C)C)ccc2CC1C (racemic) [Example 155, (±)-8-tert-Butyl-1-[4-(3,5-dimethylisoxazol-4-yl)phenyl]-N,4-dimethyl-4,5-dihydro-3H-2,3-benzodiazepine-3-carboxamide] | 7.40 | 6.42 |
| CNC(=O)N1N=C(c2ccc(-c3ccccc3OC)cc2)c2cc(OC)c(OC)cc2CC1C (racemic) [Example 90, (±)-7,8-dimethoxy-1-(2′-methoxybiphenyl-4-yl)-N,4-40dimethyl-4,5-dihydro-3H-2,3-benzodiazepine-3-carboxamide] | 7.15 | 6.34 |
| CNC(=O)N1N=C(c2ccc(-c3ccc(OC(F)(F)F)cc3)cc2)c2cc(OC)c(OC)cc2CC1C (racemic) [Example 95, (±)-7,8-dimethoxy-N,4-dimethyl-1-[4′-(trifluoromethoxy)biphenyl-4-yl]-4,5-dihydro-3H-2,3-benzodiazepine-3-carboxamide] | 6.20 | 5.56 |
| CNC(=O)N1N=C(c2ccc(-c3cccc(S(C)(=O)=O)c3)cc2)c2cc(OC)c(OC)cc2CC1C (racemic) [Example 73, (±)-7,8-dimcthoxy-N,4-dimethyl-1-[3′-(methylsulphonyl)biphenyl-4-yl]-4,5-dihydro-3H-2,3-benzodiazepine-3-carboxamide] | 7.52 | 6.52 |
| CNC(=O)N1N=C(c2cccc(N3CCN(C)CC3)c2)c2cc(OC)c(OC)cc2CC1C (racemic) [Example 143, (±)-7,8-dimethoxy-N,4-dimethyl-1-[3-(4-methylpiperazin-1-yl)phenyl]-4,5-dihydro 3H-2,3-benzodiazepine-3-carboxamide] | 6.77 | 6.08 |
| CNC(=O)N1N=C(c2ccc(-c3cccc(C(F)(F)F)c3)cc2)c2cc(OC)c(OC)cc2CC1C (racemic) [Example 85, (±)-7,8-dimethoxy-N,4-dimethyl-1-[3′-(trifluoromethyl)biphenyl-4-yl]-4,5-dihydro-3H-2,3-benzodiazepine-3-carboxamide] | 6.54 | 5.97 |
| CNC(=O)N1N=C(c2cccc(-c3c(C)noc3C)c2)c2cc(OC)c(OC)cc2CC1C (racemic) [Example 31, (±)-1-[3-(3,5-Dimethylisoxazol-4-yl)phenyl]-7,8-dimethoxy-N,4-dimethyl-4,5-dihydro-3H-2,3-benzodiazepine-3-carboxamide] | 6.74 | 6.57 |
| CNC(=O)N1N=C(c2ccc(-c3cccnc3)cc2)c2cc(OC)c(OC)cc2CC1C (racemic) [Example 103, (±)-7,8-dimethoxy-N,4-dimethyl-1-[4-(pyridin-3-yl)phenyl]-4,5-dihydro-3H-2,3-benzodiazepine-3-carboxamide] | 7.40 | 6.46 |
| CNC(=O)N1N=C(c2ccc(-c3cccn3C)cc2)c2cc(OC)c(OC)cc2CC1C (racemic) [Example 116, (±)-7,8-dimethoxy-N,4-dimethyl-1-[4-(1-methyl-1H-pyrrol-2-yl)phenyl]-4,5-dihydro-3H-2,3-benzodiazepine-3-carboxamide] | 7.15 | 6.31 |
| CNC(=O)N1N=C(c2ccc(-c3c(C)noc3C)cc2)c2cc(OC(F)(F)F)c(Cl)cc2C[C@H]1C [Example 156.2, (4R)-7-Chloro-1-[4-(3,5-dimethylisoxazol-4-yl)phenyl]-N,4-dimethyl-8-(trifluoromethoxy)-4,5-dihydro-3H-2,3-benzodiazepine-3-carboxamide] | 5.65 | < 5.00 |
| CNC(=O)N1N=C(c2ccc(-c3cccc(C#N)c3)cc2)c2cc(OC)c(OC)cc2CC1C (racemic) [Example 105, (±)-1-(3′-cyanobiphenyl-4-yl)-7,8-dimethoxy-N,4-dimethyl-4,5-dihydro-3H-2,3-benzodiazepine-3-carboxamide] | 7.10 | 6.17 |
| CNC(=O)N1N=C(c2ccc(-c3cccc(OC)c3)cc2)c2cc(OC)c(OC)cc2CC1C (racemic) [Example 87, (±)-7,8-dimethoxy-1-(3′-methoxybiphenyl-4-yl)-N,4-dimethyl-4,5-dihydro-3H-2,3-benzodiazepine-3-carboxamide] | 6.96 | 6.25 |
| CNC(=O)N1N=C(c2ccc(-c3ccc(N4CCOCC4)cc3)cc2)c2cc(OC)c(OC)cc2CC1C (racemic) [Example 110, (±)-7,8-dimethoxy-N,4-dimethyl-1-[4′-(morpholin-4-yl)biphenyl-4-yl]-4,5-dihydro-3H-2,3-benzodiazepine-3-carboxamide] | 7.22 | 6.44 |
| CNC(=O)N1N=C(c2ccc(-c3ccccc3C(F)(F)F)cc2)c2cc(OC)c(OC)cc2CC1C (racemic) [Example 91, (±)-7,8-dimethoxy-N,4-dimethyl-1-[2′-(trifluoromethyl)biphenyl-4-yl]-4,5-dihydro-3H-2,3-benzodiazepine-3-carboxamide] | 6.47 | 6.26 |
| CNC(=O)N1N=C(c2ccc(Cl)cc2)c2ccc(N3CCOC3=O)cc2CC1C (racemic) [Example 230, (±)-1-(4-chlorophenyl)-N,4-dimethyl-7-(2-oxo-1,3-oxazolidin-3-yl)-4,5-dihydro-3H-2,3-benzodiazepine-3-carboxamide] | 6.62 | 6.64 |
| CNC(=O)N1N=C(c2cccc(N3CCC3)c2)c2cc(OC)c(OC)cc2CC1C (racemic) [Example 142, (±)-1-[3-(azetidin-1-yl)phenyl]-7,8-dimethoxy-N,4-dimethyl-4,5-dihydro-3H-2,3-benzodiazepine-3-carboxamide] | 7.00 | 6.17 |
| CNC(=O)N1N=C(c2ccc(N3CCC(O)CC3)cc2)c2cc(OC)c(OC)cc2CC1C (racemic) [Example 130, (±)-1-[4-(4-hydroxypiperidin-1-yl)phenyl]-7,8-dimethoxy-N,4-dimethyl-4,5-dihydro-3H-2,3-benzodiazepine-3-carboxamide] | 7.52 | 6.77 |
| CNC(=O)N1N=C(c2ccc(-c3ccc(C(=O)N4CCOCC4)cc3)cc2)c2cc(OC)c(OC)cc2CC1C (racemic) [Example 79, (±)-7,8-dimethoxy-N,4-dimethyl-1-[4′-(morpholin-4-ylcarbonyl)biphenyl-4-yl]-4,5-dihydro-3H-2,3-benzodiazepine-3-carboxamide] | 7.30 | 6.34 |
| CNC(=O)N1N=C(c2ccc(-c3cnccc3F)cc2)c2cc(OC)c(OC)cc2CC1C (racemic) [Example 123, (±)-1-[4-(4-fluoropyridin-3-yl)phenyl]-7,8-dimethoxy-N,4-dimethyl-4,5-dihydro-3H-2,3-benzodiazepine-3-carboxamide] | 7.30 | 6.20 |
| CNC(=O)N1N=C(c2ccc(-c3ccnc(OC)c3)cc2)c2cc(OC)c(OC)cc2CC1C (racemic) [Example 125, (±)-7,8-dimethoxy-1-[4-(2-methoxypyridin-4-yl)phenyl]-N,4-dimethyl-4,5-dihydro-3H-2,3-benzodiazepine-3-carboxamide] | 7.15 | 5.94 |
| CNC(=O)N1N=C(c2ccc(N3CCN(C(C)=O)CC3)cc2)c2cc(OC)c(OC)cc2C[C@H]1C [Example 132.1, (4R)-1-[4-(4-acetylpiperazin-1-yl)phenyl]-7,8-dimethoxy-N,4-dimethyl-4,5-dihydro-3H-2,3-benzodiazepine-3-carboxamide] | 5.39 | 5.12 |
